The test concerns Eschericia coli strain ATCC25922. Briefly: standard microdilution assay to determine minimum inhibitory concentrations (MICs). The test is classed as cell-based. As to conditions: Escherichia coli, read-out: E. coli ATCC25922 MIC. As for the experimental part: Minimum inhibitory concentrations (MICs) are determined by the microdilution method, typically in a final volume of 100 microliters, according to protocols outlined by The Clinical and Laboratory Standards Institute [CLSI; formerly the National Committee for Clinical Laboratory Standards (NCCLS)]. See CLSI: Methods for dilution antimicrobial susceptibility tests for bacteria that grow aerobically; approved standard-fifth edition. Wayne, Pa.: NCCLS; 2000. The assays can be also be performed in microtiter trays according to conventional methodologies as published by the CLSI. See CLSI. Methods for Dilution Antimicrobial Susceptibility Tests for Bacteria That Grow Aerobically; Approved Standard-Seventh Edition. CLSI Document M7-A7 [ISBN 1-56238-587-9] CLSI, 940 West Valley Road, Suite 1400, Wayne Pa. 19087-1898 USA, 2006).
The compounds of the present invention were tested for antimicrobial activity. The compounds were run against Eschericia coli strain ATCC25922 using a standard microdilution assay to determine minimum inhibitory concentrations (MICs). […] A “N/A” means that data is unavailable. It will be recognized by one skilled in the art that the compounds can be assessed against other bacterial organisms and that the presentation of data for activity against Eschericia coli is illustrative and in no way is intended to limit the scope of the present invention. The compounds of the present invention can be assayed against a range of other microorganisms depending upon the performance activity desired to be gathered. Furthermore, the “+”, “−”, and “N/A” representation and the selection of a cutoff value of 16 micrograms/ml is also illustrative and in no way is intended to limit the scope of the present invention.
Background: In broth dilution the organism is exposed to a series of concentrations in liquid medium.
One may read the MIC as the least concentration at which growth counts as inhibited. With `N=C(N)NCCCNC1CCC(n2cc3c(nc2=O)Nc2cc(C4CCN(C(=O)CNC(=N)N)CC4)ccc2O3)CC1` (stereo not drawn) [Compound 752], the MIC is < 16 µg/mL.

Consider `N=C(N)NCCCNC1CCC(n2cc3c(nc2=O)Nc2cc(C4CCN(C(=O)CN(Cc5ccc(F)c(F)c5)C5CCNCC5)CC4)ccc2O3)CC1` (stereo not drawn) [Compound 753], for which the MIC is < 16 µg/mL.

`NCCCNC1CCC(n2cc3c(nc2=O)Nc2cc(C4CCN(C(=O)CN(Cc5ccc(F)c(F)c5)C5CCNCC5)CC4)ccc2O3)CC1` (stereo not drawn) [Compound 754]: the MIC is < 16 µg/mL.

Regarding `N=C(N)NCCCNC1CCC(n2cc3c(nc2=O)Nc2cc(C(=O)NCCc4c[nH]cn4)ccc2O3)CC1` (stereo not drawn) [Compound 763], the MIC is > 16 µg/mL.

For the compound `N=C(N)NCCCNC1CCC(n2cc3c(nc2=O)Nc2cc(C4CCN(C(=O)Nc5ccc(F)cc5)CC4)ccc2O3)CC1` (stereo not drawn) [Compound 765], the MIC is < 16 µg/mL.

Take `CN1CCN(CCCNC(=O)c2ccc3c(c2)Nc2nc(=O)n(C4CCC(NCCCNC(=N)N)CC4)cc2O3)CC1` (stereo not drawn) [Compound 774]: the MIC was < 16 µg/mL.

In the case of `N=C(N)NCCCNC1CCC(n2cc3c(nc2=O)Nc2cc(C4CCN(C(=O)C5(N)CC5)CC4)ccc2O3)CC1` (stereo not drawn) [Compound 776], the MIC is < 16 µg/mL.

As to `N=C(N)NCCCN1CCCC(n2cc3c(nc2=O)Nc2cc(C4CCN(C(=O)C5(N)CCCC5)CC4)ccc2O3)CC1` (stereo not drawn) [Compound 777], the MIC is < 16 µg/mL.

Regarding `N=C(N)NCCCNC1CCC(n2cc3c(nc2=O)Nc2cc(C(=O)NCCCN4CCOCC4)ccc2O3)CC1` (stereo not drawn) [Compound 781], the MIC was < 16 µg/mL.

For `N=C(N)NCCCN1CCC(n2cc3c(nc2=O)Nc2cc(C4CCN(C(=O)Nc5cc(F)c(F)cc5F)CC4)ccc2O3)CC1` [Compound 782], the MIC is > 16 µg/mL.

Regarding `N=C(N)NCCCNC1CCC(n2cc3c(nc2=O)Nc2cc(C4CCN(C(=O)C5(N)CCCC5)CC4)ccc2O3)CC1` (stereo not drawn) [Compound 783], the MIC was < 16 µg/mL.

As for `N=C(N)NCCCN1CCCC(n2cc3c(nc2=O)Nc2cc(C4CCN(C(=O)CN)CC4)ccc2O3)CC1` (stereo not drawn) [Compound 793], the MIC is < 16 µg/mL.

Take `NCCCN1CCCC(n2cc3c(nc2=O)Nc2cc(C4CCN(C(=O)CCN)CC4)ccc2O3)CC1` (stereo not drawn) [Compound 795]: the MIC is > 16 µg/mL.

Take `NCCCN1CCC(n2cc3c(nc2=O)Nc2cc(C(=O)NCCN4CCC[C@H](N)C4)ccc2O3)CC1` [Compound 798]: the MIC is > 16 µg/mL.

As for `N=C(N)NCC(=O)N1CCC(c2ccc3c(c2)Nc2nc(=O)n(C4CCCN(CCCN)CC4)cc2O3)CC1` (stereo not drawn) [Compound 832], the MIC was < 16 µg/mL.

Take `N=C(N)NCCCN1CCCC(n2cc3c(nc2=O)Nc2cc(C4CCN(C(N)=O)CC4)ccc2O3)CC1` (stereo not drawn) [Compound 833]: the MIC is < 16 µg/mL.

Regarding `O=C(NCCCN1CCNCC1)c1ccc2c(c1)Nc1nc(=O)n(CCO)cc1O2` [Compound 858], the MIC is > 16 µg/mL.

As for `NCCCN1CCCC(n2cc3c(nc2=O)Nc2cc(C(=O)N4CCC[C@H](N)C4)ccc2O3)CC1` (stereo partly drawn) [Compound 870], the MIC is > 16 µg/mL.

Take `NCCCN1CCCC(n2cc3c(nc2=O)Nc2cc(C(=O)N4CCC[C@@H](N)C4)ccc2O3)CC1` (stereo partly drawn) [Compound 888]: the MIC is > 16 µg/mL.

As to `O=C(NCCCN1CCNCC1)c1ccc2c(c1)Nc1nc(=O)n(C3CCCNCC3)cc1O2` (stereo not drawn) [Compound 890], the MIC was > 16 µg/mL.

For `NC1CCCN(C(=O)c2ccc3c(c2)Nc2nc(=O)n(C4CCCNCC4)cc2O3)C1` (stereo not drawn) [Compound 891], the MIC is > 16 µg/mL.

`NC1CCC(n2cc3c(nc2=O)Nc2cc(CC(=O)NCCCN4CCNCC4)ccc2O3)CC1` (stereo not drawn) [Compound 903]: the MIC was > 16 µg/mL.

Take `N[C@@H]1CCCN(C(=O)c2ccc3c(c2)Nc2nc(=O)n(C4CCCNCC4)cc2O3)C1` (stereo partly drawn) [Compound 908]: the MIC was > 16 µg/mL.

Turning to `CCn1cc2c(nc1=O)Nc1cc(CNCCCN3CCNCC3)ccc1O2` [Compound 919], the MIC is > 16 µg/mL.

As to `O=c1nc2c(cn1C1CCCNCC1)Oc1ccc(CNCCCN3CCNCC3)cc1N2` (stereo not drawn) [Compound 920], the MIC was > 16 µg/mL.

As to `N[C@H]1CCCN(CCNCc2ccc3c(c2)Nc2nc(=O)n(C4CCCNCC4)cc2O3)C1` (stereo partly drawn) [Compound 921], the MIC was > 16 µg/mL.

As to `NCCCN1CCC(n2cc3c(nc2=O)N[C@@H]2CCCC[C@H]2O3)CC1` [Compound 929], the MIC is > 16 µg/mL.

For `N=C(N)NCCCNC1CCC(n2cc3c(nc2=O)Nc2cc(C4=CCNCC4)ccc2O3)CC1` (stereo not drawn) [Compound 938], the MIC was < 16 µg/mL.

Take `N=C(N)NCCCN1CCCC(n2cc3c(nc2=O)Nc2cc(C(=O)N4CCC[C@H](N)C4)ccc2O3)CC1` (stereo partly drawn) [Compound 950]: the MIC is < 16 µg/mL.

With `N=C(N)NCCCN[C@H]1CC[C@H](n2cc3c(nc2=O)Nc2cc(CCN4CCOCC4)ccc2O3)CC1` [Compound 956], the MIC is < 16 µg/mL.

With `NC1CCC(n2cc3c(nc2=O)Nc2cc(C4CCNCC4)ccc2O3)CC1` (stereo not drawn) [Compound 972], the MIC is > 16 µg/mL.

Regarding `N=C(N)NCCCNC1CCC(n2cc3c(nc2=O)Nc2cc(C4CCNCC4)ccc2O3)CC1` (stereo not drawn) [Compound 993], the MIC was < 16 µg/mL.

In the case of `N=C(N)NCCC(=O)NC1CCC(n2cc3c(nc2=O)Nc2cc(C4CCNCC4)ccc2O3)CC1` (stereo not drawn) [Compound 1032], the minimal inhibitory concentration (MIC) is < 16 µg/mL.

On to `COCCN(C(=O)CN1CCC(c2ccc3c(c2)Nc2nc(=O)n(C4CCC(N)CC4)cc2O3)CC1)C1CCNCC1` (stereo not drawn) [Compound 1041], for which the MIC is > 16 µg/mL.

For `NC1CCC(n2cc3c(nc2=O)Nc2cc(C4CCN(CC(=O)N(CC5CC5(F)F)C5CCNCC5)CC4)ccc2O3)CC1` (stereo not drawn) [Compound 1042], the MIC is > 16 µg/mL.

For the compound `NCCC(=O)NC1CCC(n2cc3c(nc2=O)Nc2cc(C4CCNCC4)ccc2O3)CC1` (stereo not drawn) [Compound 1086], the MIC was < 16 µg/mL.

On to `NC1CCC(n2cc3c(nc2=O)Nc2cc(C4CCN(CC(=O)N(Cc5ccc6[nH]cnc6c5)C5CCNCC5)CC4)ccc2O3)CC1` (stereo not drawn) [Compound 1096], for which the MIC is > 16 µg/mL.

Regarding `N=C(N)NCCS(=O)(=O)NC1CCC(n2cc3c(nc2=O)Nc2cc(C4CCNCC4)ccc2O3)CC1` (stereo not drawn) [Compound 1133], the MIC is < 16 µg/mL.

Take `N=C(N)NCCCN(C(=O)CCN)C1CCC(n2cc3c(nc2=O)Nc2cc(C4CCNCC4)ccc2O3)CC1` (stereo not drawn) [Compound 1134]: the MIC is < 16 µg/mL.

With `N=C(N)NCCCN(C(=O)CCNC(=N)N)C1CCC(n2cc3c(nc2=O)Nc2cc(C4CCNCC4)ccc2O3)CC1` (stereo not drawn) [Compound 1135], the MIC was < 16 µg/mL.

For the compound `N=C(N)NCCC(=O)N(CCCN)C1CCC(n2cc3c(nc2=O)Nc2cc(C4CCNCC4)ccc2O3)CC1` (stereo not drawn) [Compound 1145], the MIC was < 16 µg/mL.

As to `NCCCN(C(=O)CCN)C1CCC(n2cc3c(nc2=O)Nc2cc(C4CCNCC4)ccc2O3)CC1` (stereo not drawn) [Compound 1146], the MIC was < 16 µg/mL.

As to `NCCS(=O)(=O)NC1CCC(n2cc3c(nc2=O)Nc2cc(C4CCNCC4)ccc2O3)CC1` (stereo not drawn) [Compound 1147], the MIC is > 16 µg/mL.

In the case of `O=C(CCN1CCNCC1)NC1CCC(n2cc3c(nc2=O)Nc2cc(C4CCNCC4)ccc2O3)CC1` (stereo not drawn) [Compound 1192], the MIC is > 16 µg/mL.

Turning to `O=c1nc2c(cn1C1CCC(NCCCN3CCNCC3)CC1)Oc1ccc(C3CCNCC3)cc1N2` (stereo not drawn) [Compound 1193], the MIC is > 16 µg/mL.

Consider `Cc1ccc(CCCNC2CCC(n3cc4c(nc3=O)Nc3cc(C5CCNCC5)ccc3O4)CC2)o1` (stereo not drawn) [Compound 1197], for which the MIC was > 16 µg/mL.

`Cc1ccc(CCCN(CCCc2ccc(C)o2)C2CCC(n3cc4c(nc3=O)Nc3cc(C5CCNCC5)ccc3O4)CC2)o1` (stereo not drawn) [Compound 1198]: the MIC is > 16 µg/mL.

As for `O=c1nc2c(cn1C1CCC(NCCCc3cnn[nH]3)CC1)Oc1ccc(C3CCNCC3)cc1N2` (stereo not drawn) [Compound 1212], the MIC was > 16 µg/mL.

With `O=C1OCCN1CCCNC1CCC(n2cc3c(nc2=O)Nc2cc(C4CCNCC4)ccc2O3)CC1` (stereo not drawn) [Compound 1213], the MIC is > 16 µg/mL.

In the case of `O=c1nc2c(cn1C1CCC(NCCCN3CCCCC3)CC1)Oc1ccc(C3CCNCC3)cc1N2` (stereo not drawn) [Compound 1234], the minimum inhibitory concentration (MIC) was < 16 µg/mL.

`NCCCNC(=O)C1CCC(n2cc3c(nc2=O)Nc2cc(C4CCNCC4)ccc2O3)CC1` (stereo not drawn) [Compound 1235]: the minimum inhibitory concentration (MIC) was < 16 µg/mL.

Regarding `N=C(N)NCCCNC(=O)C1CCC(n2cc3c(nc2=O)Nc2cc(C4CCNCC4)ccc2O3)CC1` (stereo not drawn) [Compound 1236], the MIC was < 16 µg/mL.

As to `N=C(N)NCCNC(=O)C1CCC(n2cc3c(nc2=O)Nc2cc(C4CCNCC4)ccc2O3)CC1` (stereo not drawn) [Compound 1237], the MIC is < 16 µg/mL.

For the compound `NCCNC(=O)C1CCC(n2cc3c(nc2=O)Nc2cc(C4CCNCC4)ccc2O3)CC1` (stereo not drawn) [Compound 1238], the MIC is < 16 µg/mL.

As for `NCCCN(CCCN)C1CCC(n2cc3c(nc2=O)Nc2cc(C4CCNCC4)ccc2O3)CC1` (stereo not drawn) [Compound 1244], the MIC was < 16 µg/mL.

Consider `NCCCNCC1CCC(n2cc3c(nc2=O)Nc2cc(C4CCNCC4)ccc2O3)CC1` (stereo not drawn) [Compound 1269], for which the MIC was < 16 µg/mL.

With `NC1CCC(Cn2cc3c(nc2=O)Nc2cc(C4CCNCC4)ccc2O3)CC1` (stereo not drawn) [Compound 1368], the MIC is > 16 µg/mL.

Turning to `NCC1CCC(n2cc3c(nc2=O)Nc2cc(C4CCNCC4)ccc2O3)CC1` (stereo not drawn) [Compound 1369], the MIC was > 16 µg/mL.

Take `NCCCN(CCCN)CC1CCC(n2cc3c(nc2=O)Nc2cc(C4CCNCC4)ccc2O3)CC1` (stereo not drawn) [Compound 1370]: the MIC is < 16 µg/mL.

On to `CN(C)CCCOc1cccc2c1Nc1nc(=O)n(C3CCC(CN)CC3)cc1O2` (stereo not drawn) [Compound 1421], for which the MIC is > 16 µg/mL.

For the origin of these results see patent US9023843B2, “Antimicrobial compounds and methods of making and using the same” (Melinta Therapeutics, Inc., priority 2009, dated 2015).
